83 molecules from the RepoRT retention time repository can be followed below.

Counter-ions that a name gives are not always drawn.

The data set in a line: HILIC, Merck SeQuant ZIC-HILIC, 25 °C, 0.25 mL/min; A: water + 16 mM ammonium formate; B: acetonitrile + 0.1% formic acid, pH 3; gradient (min/%B) 0/97 2/97 10/70 15/10 17/10 18/97 25/97. The note with it: stereoisomer not certain.
Regarding `OCC1OC(O)CC1O` (stereo not drawn), the LC retention time turned out to be 13 min.

Turning to `CC(C)C(O)C(=O)O` (stereo not drawn), the LC retention time came out at 1.94 min.

As to `CC12CCC(O)CC1CCC1C2C(O)CC2(C)C1CCC2(O)C(=O)CO` (stereo not drawn), the LC retention time amounted to 1.91 min.

For `O=C(O)CCCCC1CCSS1` (racemic), the LC retention time was 1.66 min.

Consider `CC(N)(Cc1cnc[nH]1)C(=O)O` (racemic) [Alpha-methyl-DL-histidine dihydrochloride], for which the LC retention time is 15.5 min.

`CC(=O)NC(C(=O)O)C(C)C` (racemic) [N-acetyl-DL-valine]: the LC retention time turned out to be 2.08 min.

As for `O=C(O)CC(Cc1ccccc1)C(=O)O` (racemic) [dl-benzylsuccinic acid], the LC retention time is 2.15 min.

Regarding `Oc1cc(O)c2c(c1)OC(c1ccc(O)c(O)c1)C(O)C2` (single isomer, unassigned; (+)) [(+)-Catechin hydrate], the LC retention time is 9.95 min.

As to `O=C(OC1Cc2c(O)cc(O)cc2OC1c1cc(O)c(O)c(O)c1)c1cc(O)c(O)c(O)c1` (single isomer, unassigned; (-)) [(-)-Epigallocatechin gallate], the LC retention time came to 12.4 min.

For `CN1C2CC(OC(=O)C(CO)c3ccccc3)CC1C1OC12` (single isomer, unassigned; (-)) [(-)-Scopolamine hydrochloride], the LC retention time amounted to 9.99 min.

For `CCCCCCCCC=CCCCCCCCC(=O)OCC(CO)OC(=O)CCCCCCCC=CCCCCCCCC` (stereo not drawn) [1-2-dioleoyl-sn-glycerol], the LC retention time is 1.49 min.

Turning to `NCCCN` [1-3-DIAMINOPROPANE], the LC retention time stood at 17.6 min.

Regarding `Cn1c(=O)c2[nH]c(=O)[nH]c2n(C)c1=O` [1-3-Dimethyluric acid], the LC retention time turned out to be 2.19 min.

Turning to `OCC1OCC(O)C(O)C1O` [1-5-Anhydro-D-sorbitol], the LC retention time came out at 10.1 min.

In the case of `NC1(C(=O)O)CC1` [1-AMINOCYCLOPROPANECARBOXYLATE], the LC retention time was found to be 13.5 min.

As for `NC1(C(=O)O)CCCCC1` [1-Aminocyclohexanecarboxylic acid], the LC retention time is 11.7 min.

As to `O=C(O)c1ccc2ccccc2c1[O-]` [1-HYDROXY-2-NAPHTHOATE], the LC retention time was found to be 1.77 min.

On to `Cn1cnc(C[C@H](N)C(=O)O)c1` [1-METHYL-L-HISTIDINE], for which the LC retention time is 15.8 min.

Regarding `Cn1cnc2c(ncn2C2OC(CO)C(O)C2O)c1=N` (stereo not drawn) [1-METHYLADENOSINE], the LC retention time came to 12.8 min.

Consider `C[n+]1cccc(C(N)=O)c1` [1-METHYLNICOTINAMIDE], for which the LC retention time was found to be 12.8 min.

Consider `Cn1c(=O)[nH]c2[nH]c(=O)[nH]c2c1=O` [1-Methyluric acid], for which the LC retention time came to 9.44 min.

Take `Cn1c(=O)[nH]c2nc[nH]c2c1=O` [1-Methylxanthine]: the LC retention time was 2.14 min.

For the molecule `CC(=O)c1ccc(O)cc1O` [2'-4'-DIHYDROXYACETOPHENONE], the LC retention time came to 1.72 min.

For the molecule `Nc1ncnc2c1ncn2C1CC(O)C(COP(=O)(O)OP(=O)(O)O)O1` (stereo not drawn) [2'-DEOXYADENOSINE 5'-DIPHOSPHATE], the LC retention time came out at 14.6 min.

For `COC1C(O)C(CO)OC1n1cnc2c(=O)[nH]cnc21` (stereo not drawn) [2'-O-Methylinosine], the LC retention time is 8.49 min.

With `CC(C)(CCC(=O)O)C(=O)O` [2-2-Dimethylglutaric acid], the LC retention time came to 2.1 min.

Take `CC(C)(CC(=O)O)C(=O)O` [2-2-Dimethylsuccinic acid]: the LC retention time was 2.18 min.

For `NCC(N)C(=O)O` (stereo not drawn) [2-3-DIAMINOPROPIONATE], the LC retention time was found to be 16.1 min.

For `O=C(O)c1cccc(O)c1O` [2-3-DIHYDROXYBENZOATE], the LC retention time worked out at 2.14 min.

For the molecule `O=C(O)C(COP(=O)(O)O)OP(=O)(O)O` [2-3-DIPHOSPHO-D-GLYCERIC ACID], the LC retention time was determined as 15.7 min.

As to `O=C(O)c1ccc(O)cc1O` [2-4-Dihydroxybenzoic acid], the LC retention time was 2.18 min.

Take `O=C(O)c1cc(O)ccc1O` [2-5-DIHYDROXYBENZOATE]: the LC retention time amounted to 2.14 min.

As to `Cc1cnc(C)cn1` [2-5-DIMETHYLPYRAZINE], the LC retention time was 2.19 min.

In the case of `O=C(O)c1c(O)cccc1O` [2-6-Dihydroxybenzoic acid], the LC retention time worked out at 2.07 min.

On to `O=c1ccc2cc(O)ccc2[nH]1` [2-6-quinolinediol], for which the LC retention time turned out to be 2.16 min.

Turning to `CC(=O)N[C@@H]1[C@@H](O)[C@H](O)[C@@H](CO)O[C@H]1N` [2-ACETAMIDO-2-DEOXY-BETA-D-GLUCOSYLAMINE], the LC retention time was found to be 14.5 min.

Take `CC(C)(N)C(=O)O` [2-AMINOISOBUTYRATE]: the LC retention time was determined as 13 min.

Turning to `Nc1ccccc1O` [2-AMINOPHENOL], the LC retention time was determined as 2.11 min.

`Nc1ncccc1C(=O)O` [2-Aminopyridine-3-carboxylic acid]: the LC retention time was 8.8 min.

In the case of `O=CC[C@@H](O)[C@H](O)[C@H](O)CO` [2-DEOXY-D-GLUCOSE], the LC retention time turned out to be 10.2 min.

Take `CSCCC(O)C(=O)O` (stereo not drawn) [2-HYDROXY-4-(METHYLTHIO)BUTANOATE]: the LC retention time was found to be 1.99 min.

Regarding `CCC(O)C(=O)[O-]` (stereo not drawn) [2-HYDROXYBUTYRATE], the LC retention time worked out at 2.1 min.

With `O=c1cccc[nH]1` [2-HYDROXYPYRIDINE], the LC retention time amounted to 2.15 min.

For the molecule `OCc1ccccc1O` [2-Hydroxybenzyl alcohol ( Salicyl alcohol- Saligenin)], the LC retention time stood at 1.95 min.

For `CC(C)CC(O)C(=O)O` (stereo not drawn) [2-Hydroxyisocaproic acid], the LC retention time was 1.91 min.

For `Cc1ccccc1C(=O)NCC(=O)O` [2-Methylhippuric acid (ortho-Methylhippuric acid)], the LC retention time amounted to 1.97 min.

For `NC(C(=O)O)c1ccccc1` (stereo not drawn) [2-Phenylglycine], the LC retention time stood at 11.8 min.

As to `O=C(O)c1ccc2ccccc2n1` [2-QUINOLINECARBOXYLATE], the LC retention time stood at 2.13 min.

Consider `CCCCC(O)C(=O)O` (stereo not drawn) [2-hydroxycaproic acid], for which the LC retention time turned out to be 1.87 min.

With `O=C(O)C(=O)CCc1ccccc1` [2-oxo-4-phenyl-butyric acid], the LC retention time amounted to 2.06 min.

Take `CC(C)(CC(=O)O)CC(=O)O` [3-3-Dimethylglutaric acid]: the LC retention time was 2.11 min.

With `O=C(O)C(O)c1ccc(O)c(O)c1` (stereo not drawn) [3-4 DIHYDROXYMANDELATE], the LC retention time was 10.3 min.

On to `NC(Cc1ccc(O)c(O)c1)C(=O)O` [3-4-DIHYDROXY-L-PHENYLALANINE], for which the LC retention time came to 13.4 min.

On to `O=C(O)c1ccc(O)c(O)c1` [3-4-DIHYDROXYBENZOATE], for which the LC retention time worked out at 2.14 min.

For `O=C(O)Cc1ccc(O)c(O)c1` [3-4-DIHYDROXYPHENYLACETATE], the LC retention time was determined as 5.6 min.

For `OCC(O)c1ccc(O)c(O)c1` (stereo not drawn) [3-4-DIHYDROXYPHENYLGLYCOL], the LC retention time was determined as 8.79 min.

Take `O=S(=O)(O)c1ccc(O)c(O)c1` [3-4-dihydroxybenzenesulfonic acid]: the LC retention time is 12.8 min.

`NC(Cc1cc(I)c(Oc2ccc(O)cc2)c(I)c1)C(=O)O` [3-5-DIIODO-L-THYRONINE]: the LC retention time is 9.3 min.

As to `NC(Cc1cc(I)c(O)c(I)c1)C(=O)O` [3-5-DIIODO-L-TYROSINE], the LC retention time amounted to 10.5 min.

As to `O=C(O)c1cc(O)cc(O)c1` [3-5-Dihydroxybenzoic acid], the LC retention time came to 8.46 min.

In the case of `Cn1c(=O)[nH]c(=O)c2c1[nH]c(=O)n2C` [3-7-Dimethyluric acid], the LC retention time was 2.24 min.

Regarding `Nc1cc([O-])cc(C(=O)O)c1` [3-AMINO-5-HYDROXYBENZOATE], the LC retention time is 2.16 min.

As for `Nc1c(O)cccc1C(=O)O` [3-HYDROXYANTHRANILATE], the LC retention time is 2.15 min.

With `O=Cc1cccc(O)c1` [3-HYDROXYBENZALDEHYDE], the LC retention time turned out to be 1.75 min.

Consider `O=C(O)c1cccc(O)c1` [3-HYDROXYBENZOATE], for which the LC retention time was found to be 2.15 min.

`CC(O)(CC(=O)O)CC(=O)O` [3-HYDROXYMETHYLGLUTARATE]: the LC retention time turned out to be 4.96 min.

On to `O=C(O)Cc1cccc(O)c1` [3-HYDROXYPHENYLACETATE], for which the LC retention time came out at 2.15 min.

Regarding `COc1cc(C(O)C(=O)O)ccc1O` (stereo not drawn) [3-METHOXY-4-HYDROXYMANDELATE], the LC retention time came out at 4.88 min.

In the case of `COc1cc(CCN)ccc1O` [3-METHOXYTYRAMINE], the LC retention time came out at 11 min.

On to `CC1C(=O)Nc2ccccc21` (stereo not drawn) [3-METHYL-2-OXINDOLE], for which the LC retention time came out at 1.73 min.

Take `CCC(C)C(=O)C(=O)O` (stereo not drawn) [3-METHYL-2-OXOVALERATE]: the LC retention time amounted to 1.73 min.

On to `CC(C)=CC(=O)SCCNC(=O)CCNC(=O)C(O)C(C)(C)COP(=O)(O)OP(=O)(O)OCC1OC(n2cnc3c(N)ncnc32)C(O)C1OP(=O)(O)O` (stereo not drawn) [3-METHYLCROTONYL-COA], for which the LC retention time is 13.4 min.

With `Cn1cncc1CCN` [3-METHYLHISTAMINE], the LC retention time was found to be 17.2 min.

On to `CC(CCC(=O)O)CC(=O)O` (stereo not drawn) [3-Methyladipic acid], for which the LC retention time is 2.13 min.

`Cc1cccnc1` [3-Methylpyridine (3-Picoline)]: the LC retention time turned out to be 2.16 min.

For the molecule `N[C@@H](Cc1ccc(O)c([N+](=O)[O-])c1)C(=O)O` [3-NITRO-L-TYROSINE], the LC retention time came to 11.1 min.

With `O=C(O)C(O)COP(=O)(O)O` (stereo not drawn) [3-PHOSPHOGLYCERATE], the LC retention time came out at 18.1 min.

As to `NC(CS(=O)O)C(=O)O` (stereo not drawn) [3-SULFINOALANINE], the LC retention time came out at 14.4 min.

On to `CC(C)C(C(=O)O)C(O)C(=O)O` (stereo not drawn) [3-isopropylmalic acid], for which the LC retention time is 2.19 min.

For `CC(=O)NCCCC(=O)O` [4-ACETAMIDOBUTANOATE], the LC retention time stood at 2.87 min.

Turning to `Nc1ccc(C(=O)O)cc1` [4-AMINOBENZOATE], the LC retention time is 2.12 min.

For `N[C@H](C(=O)O)c1ccc(O)cc1` [4-HYDROXY-L-PHENYLGLYCINE], the LC retention time amounted to 13.3 min.

Take `O=Cc1ccc(O)cc1` [4-HYDROXYBENZALDEHYDE]: the LC retention time stood at 1.77 min.
